Experimental data reported in PMC12016531 (Applied and Environmental Microbiology, 2025).

Key:
[1] = system: L. monocytogenes ATCC 19111; assay: MIC/MBC microdilution; type: cell-based, Listeria monocytogenes; conditions: lowest concentration that killed 99.9%; TSB-YE; highest concentration 100 µM
[2] = system: L. monocytogenes CICC 21632; assay: MIC/MBC microdilution; type: cell-based, Listeria monocytogenes; conditions: lowest concentration that killed 99.9%; TSB-YE; highest concentration 100 µM
[3] = system: L. monocytogenes ATCC 19114; assay: MIC/MBC microdilution; type: cell-based, Listeria monocytogenes; conditions: lowest concentration that killed 99.9%; TSB-YE; highest concentration 100 µM
[4] = system: all tested gram-negative strains; assay: MIC/MBC microdilution, summary over gram-negative strains; type: cell-based; conditions: up to 100 µM
Method: The microdilution method ([25]) was used to measure the MIC of mycoidesin against indicator strains (Table S2). HPLC-purified mycoidesin was weighed and dissolved in a liquid culture medium to prepare various concentrations of mycoidesin (200.00, 100.00, 50.00, 25.00, 12.50, 6.25, 3.13, 1.56, 0.78, 0.39, 0.20, and 0.10 µM). A volume of 50 µL of different concentrations of mycoidesin solutions and 50 µL culture (1 × 10^6 CFU/mL) of the indicator strain were mixed in 96-well plates. The final concentrations of mycoidesin were 100.00, 50.00, 25.00, 12.50, 6.25, 3.13, 1.56, 0.78, 0.39, 0.20, 0.10, and 0.05 µM. […] The minimum bactericidal concentration (MBC) was the lowest concentration that killed 99.9% of the bacterial population. Nisin A was purified (Cayman Chemical, USA) as previously described ([26]) and was used to measure and compare the MIC values of L. monocytogenes strains and mycoidesin.

[5] = system: Bacillus cereus CMCC63301; assay: Intracellular accumulation of UDP-MurNAc-pentapeptide; type: cell-based; conditions: mycoidesin 1× and 2× MIC, vancomycin 10× MIC; 60 min; chloramphenicol 130 µg/mL pre-incubation 15 min; HPLC, MS
Method: Bacillus cereus CMCC63301 and L. monocytogenes ATCC19111 were grown to an OD600 of 0.3 and incubated with chloramphenicol (130 µg/mL) for 15 min. Mycoidesin (1× and 2× MIC) and vancomycin (10× MIC; positive control) were added and incubated for 60 min. The cells were collected, added to boiling water, treated for 15 min, centrifuged, and the supernatant was lyophilized. The intracellular accumulation of the peptidoglycan precursor UDP-MurNAc-pentapeptide was analyzed using HPLC (Hypersil ODS column) and identified via mass spectrometry ([27]).

[6] = system: Bacillus cereus CMCC63301; assay: Time-kill curves (OD600 and CFU); type: cell-based
Description: Cell growth was monitored hourly by measuring CFU on TSB plates and OD600 values of the cultures.

B. cereus CMCC63301 = assay: Potassium release and SEM (cell membrane damage); type: cell-based, Bacillus cereus; conditions: potassium release 1×, 2×, 4× MIC, 1 h; SEM 2× and 4× MIC, 3 h, 30°C
Method: The amount of potassium released was measured using a HI96750 Potassium Photometer.
Bacillus cereus CMCC63301 and L. monocytogenes ATCC19111 were grown in TSB medium to an OD600 of 0.3. […] The cells were harvested after centrifugation (6,000 × g, 10 min), washed with PBS buffer thrice, and fixed with 2.5% (vol/vol) glutaraldehyde for 12 h at 4°C. Subsequently, the cells were subjected to gradient dehydration for 10 min, treated with isoamyl acetate for 10 min, dried with a lyophilizer for 12 h, coated with gold-palladium, and observed using a Zeiss Gemini360 instrument ([18]).

B. subtilis CMCC63501 = assay: Stability: residual antimicrobial activity by agar diffusion; type: physicochemical, Bacillus subtilis; conditions: up to 12 h
Method: After treatment for 2, 4, 6, 8, 10, and 12 h, the residual antimicrobial activity of the samples was measured using the agar diffusion method, with B. subtilis CMCC63501 as the indicator strain.

SMILES: C/C=C1\NC(=O)CNC(=O)[C@H](CCSC)NC(=O)[C@@H]2CS[C@@H](C)[C@@H](NC(=O)[C@@H]3CSC[C@@H](NC(=O)[C@H](CC(C)C)NC(=O)[C@H](CC(N)=O)NC(=O)[C@@H](N)Cc4ccc(O)cc4)C(=O)N[C@@H](C)C(=O)N[C@@H](C)C(=O)N[C@@H]([C@@H](C)CC)C(=O)N[C@@H](C)C(=O)N[C@@H](CC(=O)O)C(=O)N[C@@H](C)C(=O)N[C@@H](C)C(=O)NCC(=O)N[C@@H](CC(C)C)C(=O)N[C@@H](CCCCN)C(=O)NCC(=O)N[C@@H](CC(N)=O)C(=O)N[C@@H](Cc4ccc(O)cc4)C(=O)NCC(=O)N[C@@H](CCCCN)C(=O)N[C@@H](Cc4ccccc4)C(=O)N3)C(=O)N[C@@H](Cc3ccc(O)cc3)C(=O)N[C@H](CSC[C@@H](C(=O)NCC(=O)N[C@@H](CO)C(=O)O)NC(=O)[C@H](CO)NC(=O)[C@H](C(C)C)NC1=O)C(=O)N[C@@H](C)C(=O)N[C@@H](CCC(=O)O)C(=O)N2 [mycoidesin]
- MBC [1]: NA (No activity was detected even at the highest concentration of mycoidesin (100 µM))
- MBC [2]: NA (No activity was detected even at the highest concentration of mycoidesin (100 µM))
- MBC [3]: NA (No activity was detected even at the highest concentration of mycoidesin (100 µM))
- antimicrobial activity [4]: no antimicrobial activity
- Intracellular accumulation of UDP-MurNAc-pentapeptide [5]: observed
- effect on growth ([6]; 1× MIC (1.56 µM), TSB, 30°C, 3 h, OD600 and CFU): suppressed the growth
- effect on growth ([6]; 2× MIC (3.13 µM), TSB, 30°C, 3 h, OD600 and CFU): completely inhibited its growth
- effect on viable cells ([6]; 4× and 8× MIC (6.25 and 12.50 µM), TSB, 30°C, 3 h, OD600 and CFU): caused cell death after 2 h of treatment
- type of antimicrobial effect ([6]; high concentrations (2×–8× MIC, 3.13–12.5 µM)): bactericidal effect
- type of antimicrobial effect ([6]; low concentration (1× MIC, 1.56 µM)): bacteriostatic effect
- cell membrane damage (B. cereus CMCC63301): caused damage to the cell membrane
- residual antimicrobial activity (B. subtilis CMCC63501; pH 7.0, 37°C, mycoidesin 6.25 µM, nisin A 12.5 µM (4× MIC)): remained unchanged
- residual antimicrobial activity (B. subtilis CMCC63501; pH 7.0, 60°C, mycoidesin 6.25 µM (4× MIC)): decreased with increasing incubation time
- residual antimicrobial activity (B. subtilis CMCC63501; pH 8.0, 37°C, mycoidesin 6.25 µM, nisin A 12.5 µM (4× MIC)): decreased
- residual antimicrobial activity (B. subtilis CMCC63501; pH 8.0, 60°C, mycoidesin 6.25 µM (4× MIC)): decreased with increasing incubation time
